Where a SMILES comes first, the peptide text is derived from it. Bridges are numbered along the chain shown (N, C = ends). [ ]: non-standard residue; d: D form. The star is where a group is joined. X1 = CC[C@H](C)CCCCC(=O)*; Dab = NCC[C@H](N)C(=O)O
What was measured:
E. Faecium = experiment: microbe, parasite or virus in culture; assay type: cell-based, Enterococcus Facium
Procedure: (§1) Bacterial clinical isolates, used for initial screening and in previous studies ([Deslouches et al., 2013]; [Lin et al., 2018]), were anonymously provided by the clinical microbiology laboratory of the University of Pittsburgh medical Center. The panel used for secondary screening was from [CDC (2013)] (Supplementary Table 3), with resistance profiles data. Bacteria are stored in lock-secured –80°C freezer and typically retrieved by obtaining single colonies on agar plates prior for subsequent liquid broth cultures. Suspensions of test bacteria were prepared from log phase of growth by diluting overnight cultures at 1:100 with fresh cation-adjusted MHB (MHB2, Millipore Sigma, United States) and incubating for additional 3–4 h. Bacteria were spun at 3,000 × g for 10 min and the pellet resuspended in test condition media (Millipore Sigma, United States) to determine bacterial turbidity using a Den-1B densitometer (Grant Instruments, United States) at 0.5 McFarland (unit of bacterial density) corresponding to […].
(§2) To examine antibacterial activity, we used minor modifications of a standard growth inhibition assay endorsed by the Clinical and Laboratory Standards Institute (CLSI), as previously described ([Deslouches et al., 2013]). Bacteria were incubated with each of the indicated peptides in MHB2. The bacterial cells were kept in an incubator for 18 h at 37°C, which is linked to a robotic system that feeds a plate reader every hour with one of 8 × 96-well plates. This set-up allows the collection of growth kinetic data at A 570 (absorbance at 570 nm) to examine growth inhibition in real time (BioTek Instruments, United States). […] The assays are typically repeated a second time. If the MIC is different, a third experimental trial is performed to confirm the MIC. To assess bactericidal properties of the peptide, the assay was modified by using 15% fetal bovine serum (FBS, for a more physiologically relevant test condition) mixed with 25% MHB2 and 60% PBS. Bacterial cells (colony forming unit/mL or CFU/mL) were enumerated after incubating treated bacteria for 3 h and plating serially diluted samples on broth agar medium at 37°C overnight. Minimum bactericidal concentration (MBC) was determined as the peptide concentration at which complete bacterial killing was observed. […] Data were analyzed using GraphPad Prism software.

S. aureus = experiment: microbe, parasite or virus in culture; assay type: cell-based
Procedure: as §1, §2

Measured: MIC

CC[C@H](C)CCCCC(=O)N[C@@H](CCN)C(=O)N[C@H](C(=O)N[C@@H](CCN)C(=O)N[C@H]1CCNC(=O)[C@H]([C@@H](C)O)NC(=O)[C@H](CCN)NC(=O)[C@H](CCN)NC(=O)[C@H](CC(C)C)NC(=O)[C@@H](CC(C)C)NC(=O)[C@H](CCN)NC1=O)[C@@H](C)O [Colistin, reference compound] (X1-[Dab]T[Dab][Dab][Dab][dL]L[Dab][Dab]T; lactam 4-C (inferred); N-terminus assumed)
>16 µM: E. Faecium; strain EF500, CDC clinical strain, confirmed by a second or third experimental trial | E. Faecium; strain EF671, CDC clinical strain, confirmed by a second or third experimental trial | E. Faecium; strain EF672, CDC clinical strain, confirmed by a second or third experimental trial | E. Faecium; strain EF673, CDC clinical strain, confirmed by a second or third experimental trial | E. Faecium; strain EF23614, UPMC, MHB2, 18 h, 37°C | E. Faecium; strain EF26215, UPMC, MHB2, 18 h, 37°C | E. Faecium; strain EF26692, UPMC, MHB2, 18 h, 37°C | S. aureus; strain SA461, CDC clinical strain, confirmed by a second or third experimental trial | S. aureus; strain SA462, CDC clinical strain, confirmed by a second or third experimental trial | S. aureus; strain SA463, CDC clinical strain, confirmed by a second or third experimental trial | S. aureus; strain SA561, CDC clinical strain, confirmed by a second or third experimental trial | S. aureus; strain SA12212, UPMC, MHB2, 18 h, 37°C | S. aureus; strain SA18710, UPMC, MHB2, 18 h, 37°C | S. aureus; strain SA49775, MHB2, 18 h, 37°C | S. aureus; strain SA-US300, MHB2, 18 h, 37°C
